These results are taken from PubChem BioAssay AID1508591.

Molecules are shown by their SMILES. Some results are limits rather than exact numbers.

For the data set the following is noted: rat; liver microsomes; pH 7.4; 15.0 min; 1.0 µM.
As to `Nc1c(C(=O)N2CCCCC2)sc(=S)n1-c1ccccc1`, the half-life amounted to 6.6 min. As for `C#CCNC(=O)c1nc(-c2ccc([S+](C)(=O)[O-])cc2)c2ccccn12`, the figure is greater than 30 min; as for `Fc1cccc(Nc2nc(-c3ccncc3)nc3ccccc23)c1F`, 11 min. Compound `CNc1nc(-c2cccc3ccccc23)ccc1C#N` came in with a half-life of 5.7 min. With `COc1ccc(CNC(=O)c2sc3nc(C)cc(C)c3c2N)cc1` the figure was 8.47 min. With `Oc1ccc(CNc2ccccc2F)c2cccnc12` the figure was 3.7 min; with `COc1ccc(CCN2C(=O)N(c3ccc(F)cc3)C(=O)C2CC(=O)Nc2ccc(F)c(F)c2)cc1` (configuration not stated), 4.04 min; with `CCc1cccc(NC(=O)c2cc(-c3ccc[nH]3)n[nH]2)c1`, 6.57 min. With `O=[S+]([O-])(Nc1nccs1)c1ccc(NCc2cc(Cl)cc(Br)c2O)cc1` the figure was 12 min; with `Nc1nc(N)c2c(OCC3CCN(Cc4ccccc4F)CC3)cccc2n1`, greater than 30 min. As to `COc1cc(-c2nc(-c3ccccc3)c(-c3cccs3)[nH]2)cc(OC)c1O`, the half-life was greater than 30 min. `CCN(CC)CCCNC(=O)c1oc2c(c1C)-c1nn(Cc3ccc(Cl)cc3)cc1CC2` gave a half-life greater than 30 min. As for `CC1=C(C(=O)Nc2ccccc2C)C(c2ccccc2Br)N=C(Nc2nc3ccccc3o2)N1` (configuration not stated), the figure is 12 min; as for `NC(=O)C1CCN(c2ncc(-c3ccc(Br)cc3)s2)CC1`, 3.6 min.

In the case of `O=[N+]([O-])c1cccnc1N/N=C/c1ccccc1O`, the half-life amounted to 7.7 min. With `Oc1ccc(-c2nc(C3CC3)nc3c2CCN(CC2CCCCC2)CC3)cc1` the figure was 5.28 min; with `NCC1CCC(C(=O)Oc2ccc(CCC(=O)O)cc2)CC1` (configuration not stated), greater than 30 min; with `COc1ccccc1C(=O)Nc1nnc(SCc2cc(=O)c3ccccc3[nH]2)s1`, 7.49 min.

Consider `Cc1c(C(=O)NN2CCCCC2)nn(-c2ccc(Cl)cc2Cl)c1-c1ccc(Cl)cc1`, for which the half-life stood at 5.9 min. On to `Cc1ccc(CC(=O)Nc2nc(-c3ccc4c(c3)CCN4C(=O)c3ccccc3C)c(C)s2)cc1C`, for which the half-life was 19 min. With `COc1cccc(CNc2ccc(S(=O)(=O)Nc3ccccc3)cc2)c1O` the figure was 6.7 min; with `O=S(=O)(Nc1cccc2ccccc12)c1ccc(NCc2cccc(Cl)c2O)cc1`, 4.3 min.

Compound `O=c1cc(/C=C/c2c(F)cccc2Cl)[nH]c2ccccc12` came in with a half-life of 17.8 min.

In turn, `O=C(NC1CC1)c1nc(-c2cccnc2)c2ccccn12` showed a half-life of 21.8 min. `CC[C@H](C)[C@@H]([C@@H](CC(=O)N1CCC[C@H]1[C@H](OC)[C@@H](C)C(=O)N[C@@H](Cc1ccccc1)c1nccs1)OC)N(C)C(=O)[C@@H](NC(=O)[C@H](C(C)C)N(C)C)C(C)C` came in with a half-life greater than 30 min. With `NC(=O)C1CCN(c2nc(-c3cc4ccccc4o3)cs2)CC1` the figure was 4.21 min. As for `FC(F)(F)c1cc(-c2ccc(CNc3nc(-c4ccccc4C(F)(F)F)nc4ccsc34)cc2)ccn1`, the figure is 14.8 min. With `COc1cccc(NC(=O)c2cc(-c3ccc(C)c(C)c3)nc3ccccc23)c1` the figure was 12 min; with `Cc1ccc2nc(NC3=NC(c4[nH]ncc4Cl)C4=C(CCCC4=O)N3)oc2c1` (configuration not stated), 15.8 min. The compound `Oc1ccccc1CN1CCNc2cc(Nc3ccccc3)ncc2C1` registered a half-life of 1.79 min. Compound `Cc1cc(NC(=O)c2ccc(NC(=O)Cc3ccc(Cl)c(Cl)c3)cc2)no1` displayed a half-life of 22 min. Regarding `COc1ncc(-c2n[nH]c3c2CC(=O)N(c2ccccc2)C3)cn1`, the half-life is greater than 30 min. With `CCCCCNc1oc(-c2cccc3ccccc23)nc1C#N` the figure was 2.1 min; with `O=C(Nc1ncc(Cc2ccc(C(F)(F)F)cc2)s1)c1cnc(-c2ccccc2)[nH]1`, greater than 30 min. As for `Cc1ccc2nc(-c3cc(NC(=O)c4ccc5c(c4)OCCO5)ccc3Cl)oc2c1`, the figure is greater than 30 min; as for `C/C(=N\NC(N)=S)C1=CCC2C3CC[C@H]4CC(O)CC[C@]4(C)C3CC[C@]12C` (some centres not stated), greater than 30 min. `CC(C)(C)c1ccc(C(=O)Nc2ccc3c(c2)CCCN3C(=O)c2cccs2)cc1` came in with a half-life of 2.33 min. As for `Cc1ccc(CN2C(=O)C(O)(CC(=O)c3ccc(C)cc3)c3ccccc32)cc1` (configuration not stated), the half-life amounted to 1.18 min. With `CCOC(=O)CCNc1cc(N2CCc3ccccc3CC2)nc(-c2cccnc2)n1` the figure was 2.31 min; with `NCC(=O)Nc1ccc(Cl)cc1C(=O)c1ccc[nH]1`, greater than 30 min. As for `CC(=O)Nc1cccc(Nc2nc3ccccc3n3c(C)nnc23)c1`, the half-life is greater than 30 min. `Cc1nc(NC(=O)C2CC(=O)N(c3n[nH]c4cc(Br)ccc34)C2)sc1C` (configuration not stated) registered a half-life of 18.5 min.

On to `O=C1CCc2ccc(OCCCCN3CCN(c4cccc(Cl)c4Cl)CC3)cc2N1`, for which the half-life stood at 2.56 min. On to `COc1ccccc1CNS(=O)(=O)c1ccc(-c2cnc(C3CC3)o2)cc1`, for which the half-life is 1.58 min. As for `CCOC(=O)c1ccc(NC(=O)c2sc3nc4c(cc3c2N)N2CCC4CC2)cc1`, the figure is 1.21 min; as for `CCC1=Nc2cc(C(=O)NC3CCCC3)ccc2Sc2ccc(Cl)cc21`, 1.61 min; as for `Cc1cc(-c2nnc3n2CCCCC3)c(C)n1-c1cccc(Cl)c1`, 1.95 min. With `CN1CCN(c2ccc(-c3cccc(CN4CCOCC4)c3)cc2NC(=O)c2c[nH]c(=O)cc2C(F)(F)F)CC1` the figure was greater than 30 min. As for `Nc1nccc2c1ncn2[C@@H]1C=C(CO)[C@@H](O)[C@H]1O`, the figure is greater than 30 min. The compound `NC(=O)C1CCN(c2nc(-c3ccccc3)cs2)CC1` displayed a half-life of 3.88 min. As for `N#Cc1ccccc1CSc1nc2ncc(Br)cc2[nH]1`, the figure is 6.6 min.

As to `CCN1C(=O)c2ccccc2[S@](=O)c2ccc(C(=O)NCc3ccc(F)cc3)cc21`, the half-life amounted to 12 min.

In turn, `Cc1ccc(-n2nc3c(N4CCCC(C(=O)NCc5ccccc5C)C4)nnc(C)c3c2C)cc1` (configuration not stated) yielded a half-life of 2.1 min. As for `O=C(Nc1ncc(Cc2ccc(C(F)(F)F)cc2)s1)c1ccc(-c2ccc([N+](=O)[O-])cc2)o1`, the figure is greater than 30 min. In turn, `CC(=O)c1c(C)c2cnc(Nc3ccc(N4CCNCC4)cn3)nc2n(C2CCCC2)c1=O` gave a half-life greater than 30 min.

As to `O=c1cc(-c2ccc(O)c(O)c2)oc2cc(O)cc(O)c12`, the half-life was greater than 30 min.

`Cc1ccc(-c2cc(C(=O)Nc3ccc(-c4noc(=O)[nH]4)cc3)c3ccccc3n2)cc1C` came in with a half-life greater than 30 min. As for `NC(=O)C1CCN(c2nc(-c3cccc4ccccc34)cs2)CC1`, the figure is 4.72 min. As for `CN(C)C(=O)C1CCN(c2nc(-c3ccc(Br)cc3)cs2)CC1`, the figure is greater than 30 min; as for `COc1ccc(-n2nc(C3CCN(C(=O)C4CC4)CC3)[nH]c2=O)cc1`, greater than 30 min.

On to `O=C(Nc1ccc(S(=O)(=O)Nc2nccs2)cc1)c1ccnc2ccccc12`, for which the half-life is greater than 30 min. With `COc1ccc(OC)c(-c2nc3c(C#N)c[nH]n3c2NC2CCCCC2)c1` the figure was 4.2 min; with `O=C(NCc1cccc(C(F)(F)F)c1)c1ccc(CN2CCCCC2)cc1`, 15 min; with `O=C(Nc1nc(-c2ccccc2)cs1)c1ccccc1-n1cnnn1`, greater than 30 min.

In turn, `CN1CCN(C(c2ccccc2)c2ccccc2)CC1` showed a half-life of 2.56 min.

Regarding `NC(=O)C1CCN(c2nc(-c3ccc4ccccc4c3)cs2)CC1`, the half-life was determined as 2.62 min.

The compound `O=C(Nc1nnc(-c2ccc(Cl)cc2)o1)c1ccc(Cl)c(Cl)c1` displayed a half-life of 3.9 min.

As to `CCOC(=O)Cc1ccc(NC(=O)n2ncc3cc(Cl)ccc32)cc1`, the half-life worked out at 2.5 min.

In turn, `O=C(Nc1ncc(Cc2ccc(C(F)(F)F)cc2)s1)c1ccco1` registered a half-life greater than 30 min. As for `CNC(=O)c1ccc(C)c(-n2c(C)cc(OCc3ccc(F)cc3F)c(Br)c2=O)c1`, the figure is greater than 30 min; as for `CCCCOc1ccc(C(=O)N2CCC(c3n[nH]c(=O)n3-c3ccc(C)cc3)CC2)cc1`, 5.43 min; as for `Cn1ccc2c(C(=O)NCc3cccnc3)nc(-c3ccc(CO)cc3)cc21`, 15.7 min. As for `Cc1ccc(S(=O)(=O)Nc2cnccc2C(=O)Nc2nc(-c3cc(Br)cs3)cs2)cc1`, the figure is greater than 30 min. With `CN(Cc1ccc(/C=C/C(=O)NO)cc1)CC12CC3CC(CC(C3)C1)C2` the figure was 2.89 min; with `COC(=O)c1cc(Cl)ccc1NC(=O)CSc1ncc(S(=O)(=O)c2ccc(Br)cc2)c(=O)[nH]1`, 18 min. In the case of `CCNC(=O)c1noc(-c2cc(C(C)C)c(O)cc2O)c1-c1ccc(CN2CCOCC2)cc1`, the half-life was found to be 4.7 min. As for `O=C1CCCC2=C1C(c1[nH]ncc1Cl)N=C(Nc1nc3c(Cl)cccc3o1)N2` (configuration not stated), the figure is 3.4 min; as for `Cc1c(CN(C)c2cc(C3CC(O)C3)nc(N)n2)[nH]c2ccccc12` (configuration not stated), 15 min. With `COc1cc(/C=C(\C#N)C(=O)c2ccc(O)c(O)c2)cc(I)c1O` the figure was greater than 30 min.

In the case of `COc1cc(C2CC(=O)Nc3cc4c(cc32)OCCO4)cc(Br)c1OC` (configuration not stated), the half-life amounted to 2.55 min. With `O=C(CSc1nc(-c2ccc(F)cc2)[nH]c1-c1ccc(F)cc1)Nc1ccc2c(c1)OCCO2` the figure was 1.19 min.

Regarding `CCOc1ccc(NC(=O)CSC2=Nc3ccccc3C3=NC(CC(=O)NCc4cccs4)C(=O)N23)cc1` (configuration not stated), the half-life stood at 4.16 min. As for `Nc1nc2c(s1)C(c1cc(Cl)ccc1F)CC(=O)N2` (configuration not stated), the half-life was greater than 30 min.

`Fc1ccc(-c2csc3ncnc(Sc4nnnn4-c4ccccc4)c23)cc1` displayed a half-life of 1.6 min.

`Cc1ncc2c(c1CNC(=O)Cn1cnc3ccccc3c1=O)CCNC2` had a half-life greater than 30 min.

`O=C(Nc1cccc(S(=O)(=O)C(F)(F)F)c1)c1ccccc1NC(=O)c1ccccc1OCC(F)(F)F` registered a half-life greater than 30 min.

Turning to `Cc1ccc(S(=O)(=O)Nc2cnccc2C(=O)Nc2nc(-c3cc4ccccc4o3)cs2)cc1`, the half-life was 20 min.

`Nc1nc2c(s1)C(c1ccccc1OCc1ccccc1Cl)CC(=O)N2` (configuration not stated) registered a half-life of 6.28 min.

Take `Cn1c(=O)c2[nH]c(=O)[nH]c2n(C)c1=O`: the half-life is greater than 30 min. With `Cc1noc(/C=C/c2ccccc2F)c1S(=O)(=O)N1CCC(C(=O)Nc2ccc(C#N)cc2)CC1` the figure was 24.7 min; with `Cc1ccc(C)c(SC2=NS(=O)(=O)c3ccccc32)c1`, 1.21 min; with `CCOc1ccc(CCNC(=O)c2cc3ccccc3n2C)cc1OCC`, 1.38 min.
